Columns and labels:
[1] = tested on: Staphylococcus aureus RN4220; assay: Agar diffusion assay (diameter of zone of inhibition); assay type: cell-based; conditions: for DZI, diameter of zone of inhibition: LB agar, 6 mm paper disks, 37 °C 16 h, peptides 1 mM (SalB & B-1: cell-free synthesized, purified mixture; SalB and SalB-1: produced in vivo, purified), Kan 50 μg/mL positive control, representative of n = 3; for Antimicrobial activity against Staphylococcus aureus RN4220 (in words): agar diffusion assay, in vivo and cell-free produced peptides, 1 mM
From the text: Fig. 2 In vitro expression, modification, and maturation of salivaricin B in UniBioCat. a The gene cluster (top) and catalytic steps (bottom) of salivaricin B biosynthesis. Dha, dehydroalanine; Dhb, dehydrobutyrine; Abu, α-aminobutyric acid. b Western-blot analysis of the cell-free expressed precursor peptide (left: SboA, 7.8 kDa) and modification enzymes [right: SboM (113 kDa) and SboT (83 kDa) are co-expressed]. Peptides/enzymes are labeled with the anti-His antibody. M, protein marker; T, total protein; S, soluble protein. Results were reproduced three times independently; representative data are shown. c MALDI-TOF-MS analysis of the precursor peptide (left: 6x His-tagged SboA, [M + H]^+ m/z = 7355) and modified precursor peptides (right: dehydrated 6x His-tagged SboA, [M-H2O + H]^+ m/z = 7337, [M-2H2O + H]^+ m/z = 7319, and [M−4H2O + H]^+ m/z = 7283). d MALDI-TOF-MS (left), LC-MS (middle), and MS/MS (right) analysis of matured salivaricin B. e MALDI-TOF-MS (left), LC-MS (middle), and MS/MS (right) analysis of the analog salivaricin B−1 with one additional amino acid alanine at the N-terminus. f Antimicrobial activity assay of salivaricin B (SalB) and salivaricin B-1 (SalB-1). “SalB & B-1” was cell-free synthesized and purified for the activity assay (note that the sample used was a mixture of SalB and B-1 with a concentration of 1 mM for the test). For in vivo produced SalB and SalB-1, 1 mM of each purified SalB and SalB-1 was used for the activity assay. NC, negative control; Kan, kanamycin (50 μg/mL) as a positive control; DZI, diameter of zone of inhibition (in mm). Data shown representative of three independent experiments (n = 3). Source data are provided as a Source Data file. TEXT PRINTED IN THE PICTURE: (f) Kan: DZI: 22 | (f) SalB & B-1 (UniBioCat): DZI: 7.5 | (f) SalB (in vivo): DZI: 7.5 | (f) SalB-1 (in vivo): DZI: 9.5
Two approaches were used for testing antimicrobial activity, including solid agar plate diffusion and liquid medium cultivation. In the diffusion assay, the overnight cultivated indicator strain S. aureus RN4220 was mixed with the melted LB agar medium (a starting OD600 of 0.05). The mixture was poured onto the plate and allowed to solidify at room temperature for 30 min. Then, sterile paper disks (diameter 6 mm) were placed on the surface of the agar plate and 1 mM of each peptide was added to the paper disk. The plates were incubated at 37 °C for 16 h, and the diameter of the zone of inhibition (DZI, in mm) was measured for comparison. In the second approach, the assay was performed in 96-well plates, and cell-free synthesized mature peptides were directly used without purification. For the samples of salivaricin B variants, 80 μL of each sample (diluted if necessary) was mixed with 120 μL of LB medium, containing each variant at a roughly final concentration of 6–7 μM and the indicator strain S. aureus RN4220 (a starting OD600 of 0.02). For the samples of uncharacterized (Lan 1 - Lan 10) and three known (lacticin 481, ruminococcin A, and nukacin ISK-1) lanthipeptides, 80 μL of the cell-free reaction mixture was added directly to the liquid cultivation without quantification. The 96-well plates were incubated at 37 °C and 150 rpm for 12 h. During the cultivation, OD600 values were measured every 2 h and ΔOD600 was calculated to compare the antimicrobial activity of tested samples. In all assays, kanamycin was used as a positive for comparison.

S. aureus RN4220 [2] = assay: Liquid medium cultivation in 96-well plates, growth inhibition as ΔOD600; assay type: cell-based, Staphylococcus aureus; conditions: peptides produced in vivo and purified, Supplementary Fig. 12 (50 μM, liquid) and Fig. 2f (1 mM, agar diffusion)
From the text: Fig. 3 Generation of salivaricin B mutants and their antimicrobial activity. a Representative MALDI-TOF-MS analyses of single-site mutagenesis at the position of Q6 or L20. b Representative MALDI-TOF-MS analyses of two-site mutagenesis at the positions of Q6 and L20. In (a) and (b), salivaricin B-1 based variants are the most abundant products in all analyses, which are indicated with the [M + H]^+ ions. c Quantification of salivaricin B mutants that are synthesized in UniBioCat reactions (see Supplementary Table 5 for the yield of each peptide variant). d Antimicrobial activity assay showing ΔOD600 profiles of S. aureus RN4220 growth treated with single-site (top) and two-site (bottom) mutants. […]
Two approaches were used for testing antimicrobial activity, including solid agar plate diffusion and liquid medium cultivation. […] The plates were incubated at 37 °C for 16 h, and the diameter of the zone of inhibition (DZI, in mm) was measured for comparison. […] For the samples of uncharacterized (Lan 1 - Lan 10) and three known (lacticin 481, ruminococcin A, and nukacin ISK-1) lanthipeptides, 80 μL of the cell-free reaction mixture was added directly to the liquid cultivation without quantification. […] During the cultivation, OD600 values were measured every 2 h and ΔOD600 was calculated to compare the antimicrobial activity of tested samples. […]

Bacillus subtilis = assay: MIC (broth microdilution) and IC50 determination; assay type: cell-based; conditions: LB, 37 °C, 130 rpm
Description: (§1) MIC values were determined by using a broth microdilution method. Overnight cultures of each indicator strain were diluted to 5 × 10^5 CFU mL^−1 using fresh LB medium and distributed into 96-well plates. Then, the cells were treated with twofold serial dilutions of the purified peptides (i.e., salivaricin B and variants). The total volume of each cultivation was 200 μL per well, consisting of 175 μL bacteria cells and 25 μL diluted peptides. The final concentrations of each peptide were set at 0.12, 0.25, 0.5, 1, 2, 4, 8, and 16 μM. The positive growth control wells only contained bacterial cells without addition of peptides. The plates were incubated with 130 rpm at 37 °C for B. subtilis and M. luteus and 30 °C for L. lactic. After incubation, the lowest peptide concentration, which inhibited 90% of the bacterial growth, was recorded as the MIC. The growth curves were used to determine IC50 values with GraphPad Prism (version 10.2.1, GraphPad Software).
(§2) Supplementary Table 6 Minimal inhibitory concentrations (MIC) and IC50 of salivaricin B and variants.
(§3) Bacillus subtilis Micrococcus luteus Lactococcus lactis
(§4) Peptides MIC IC50 MIC IC50 MIC IC50
(§5) (μM) (μM) (μM) (μM) (μM) (μM)
(§6) Source data are provided as a Source Data file.

Lactococcus lactis = assay: MIC (broth microdilution) and IC50 determination; assay type: cell-based; conditions: LB, 30 °C, 130 rpm
Description: as §1, §2, §3, §4, §5, §6

Micrococcus luteus = assay: MIC (broth microdilution) and IC50 determination; assay type: cell-based; conditions: LB, 37 °C, 130 rpm
Description: as §1, §2, §3, §4, §5, §6

S. aureus RN4220 [3] = assay: MIC and IC50 assay with the indicator strain S. aureus RN4220; assay type: cell-based, Staphylococcus aureus; conditions: purified peptides produced in vivo
Description: We next sought to test the antimicrobial activity of the mutated salivaricin B variants against the indicator strain S. aureus RN4220. To compare their activity, we first determined the concentrations of all peptide variants synthesized in UniBioCat reactions (Fig. 3c and Supplementary Table 5) and added an equal amount of each variant to the cell culture in 96-well plates. During the cultivation, OD600 values were measured every 2 h for a total of 12 h. […] Based on the single-site mutagenesis and activity assay, we performed a second-round mutation with two-site mutagenesis at both Q6 and L20 using eight selected variants (the combination leads to 15 two-site mutated variants). All these new variants could be synthesized and detected by MALDI-TOF-MS (see Fig. 3b for representative analyses). […] To further verify their activity and compare to standard in vivo approaches, six variants including single- and two-site mutation were selected to be produced by in vivo expression/modification and in vitro digestion for maturation. […] Additionally, we evaluated the MIC and IC50 of four strong variants (see Supplementary Fig. 12 for SalB_Q6H, SalB_L20M, SalB_L20I-Q6H, and SalB_L20M-Q6H) against three other indicator strains, including Bacillus subtilis, Micrococcus luteus, and Lactococcus lactis.
MIC values were determined by using a broth microdilution method. […]

[4] = read-out: IC50 of salivaricin B, previous report; cited from earlier work
Description: We next sought to test the antimicrobial activity of the mutated salivaricin B variants against the indicator strain S. aureus RN4220. To compare their activity, we first determined the concentrations of all peptide variants synthesized in UniBioCat reactions (Fig. 3c and Supplementary Table 5) and added an equal amount of each variant to the cell culture in 96-well plates. During the cultivation, OD600 values were measured every 2 h for a total of 12 h. […] Based on the ...

[5] = broth microdilution, 5 × 10^5 CFU mL^−1, purified peptides 0.12–16 μM twofold dilutions, lowest concentration inhibiting 90% of growth
[6] = from growth curves, GraphPad Prism, purified peptides 0.12–16 μM

| Compound | DZI, diameter of zone of inhibition [1] | Antimicrobial activity against Staphylococcus aureus RN4220 (in words) [1] | Antimicrobial activity compared with salivaricin B, purified peptides (in words) (S. aureus RN4220 [2]) | MIC, Bacillus subtilis (Bacillus subtilis; [5]) | IC50 (Bacillus subtilis; [6]) | MIC, Lactococcus lactis (Lactococcus lactis; [5]) | IC50 (Lactococcus lactis; [6]) | MIC, Micrococcus luteus (Micrococcus luteus; [5]) | IC50 (Micrococcus luteus; [6]) | IC50 (S. aureus RN4220 [3]) | IC50 [4] |
| --- | --- | --- | --- | --- | --- | --- | --- | --- | --- | --- | --- |
| NC[C@H]1O[C@H](O[C@H]2[C@H](O)[C@@H](O[C@H]3O[C@H](CO)[C@@H](O)[C@H](N)[C@H]3O)[C@H](N)C[C@@H]2N)[C@H](O)[C@@H](O)[C@@H]1O [Kan, kanamycin, reference compound] | 22 mm |  |  |  |  |  |  |  |  |  |  |
| AGGGVIQAbuIAlaHEAlaRMNAlaWQFLFDhbAlaAlaS (bicyclic or more) [Salivaricin B-1, salivaricin B-1, salivaricin B-like peptide with one additional amino acid alanine at the N-terminus] | 9.5 mm | clear inhibitory effects on cell growth | even higher antimicrobial activity than salivaricin B |  |  |  |  |  |  |  |  |
| GGGVIQAbuIAlaHEAlaRMNAlaWQFLFDhbAlaAlaS (bicyclic or more) [Salivaricin B, salivaricin B, class II lanthipeptide naturally produced by Streptococcus salivarius K12; wild type, made cell-free or in vivo] | 7.5 mm | clear inhibitory effects on cell growth |  | 4 µM | 1.88 ± 0.01 µM | 4 µM | 1.67 ± 0.08 µM | 2 µM | 1.19 ± 0.05 µM | > 8 µM | 8.64 µM |
